Holding throughout (format): physicochemical
Data set [1] in a line: Release from pH responsive vesicles in hydrogel (Example 2). The following applies: poly(2-vinylpyridine-b-ethylene oxide) vesicles in hydrogel; buffer pH 4 to 6.5 in 0.5 pH steps. An excerpt: The vesicles are made from the block copolymer poly(2-vinylpyridine-b-ethylene oxide) (NP2VP:29,NPEO: 15) This polymer can be made as described in Foerster et al., Langmuir, 2006, 22, 5843-5847.
(§1) The hydrogel matrix is the same as Example 1.
(§2) The vesicles are loaded with lidocaine HCl, via a phase transfer method from chloroform to water, and cleaned over a Sepharose column. The resulting vesicles formulation is mixed with the PVA-acrylamide macromer and Irgacure 2959.3 g of the hydrogel is crosslinked with UV and immersed in 5 ml buffer solution at pH 4. The 5 ml buffer is exchanged after 8-16 h with 5 ml buffer solution at 0.5 pH units higher and left for another 8-16 h. This is repeated until pH 6.5 is reached. About 80% of free lidocaine is released from the hydrogel in 8 hours. The lidocaine HCl release is measured with UV at 263 nm and compared to a standard curve.

The nature of data set [2]: Release from vesicles crosslinked into the hydrogel (Example 5). The following applies: buffer pH 6.5, 50 C for 24 hours or taken out of solution over night. The text has this:
Vesicles are made from the block copolymer HO-poly(2-methyl-2-oxazoline)-b-polydimethylsiloxane-b-poly(2-methyl-2-oxazoline)-OH modified with isocyanto-ethylmetacrylate at the OH endgroups as taught in U.S. Pat. No. 5,807,944 to Hirt et al.
The hydrogel matrix is made as described in Example 1.
The vesicles are loaded with a hydrophilic lidocaine HCl and cleaned over a Sepharose column as taught above. The resulting vesicles formulation is mixed with the PVA-acrylamide macromer and Irgacure 2959.3 times 3 g of the hydrogel is crosslinked with UV and immersed in 10 ml buffer solution at pH 6.5 each. One sample is exposed to 50 C for 24 hours and left for another 24 hours. One sample is taken out of solution over night and put back into the buffer for 24 hours. Solutions are analyzed with UV for the lidocaine release and compared to the untreated solution.

The nature of data set [3]: Release of free lidocaine from the PVA-acrylamide hydrogel (Example 2). The following applies: in 8 hours; 3 g UV-crosslinked hydrogel in 5 ml buffer; UV at 263 nm. The protocol: as §1, §2
A short description of data set [4]: Release from temperature sensitive vesicles in hydrogel (Example 4). The following applies: cooled from 40 C to room temperature, 10 ml water, 12 hours.
Description: The vesicles are loaded with lidocaine HCl in a buffered solution at pH 6.5 above 40 C and cleaned over a Sepharose column. The resulting vesicles are mixed into 3 g of hydrogel at a solid content of 7% at 40 C. The hydrogel is cooled to room temperature and immersed in 10 ml of water. […] The release is measured with UV at 263 nm over 12 hours.
Data set [5] in a line: Passive diffusion from vesicles and hydrogel matrix (Example 1). Particulars: PMOXA-b-PDMS-b-PMOXA vesicles in PVA-acrylamide hydrogel; water. As for the experimental part:
Vesicles are made out of the block copolymer poly(2-methyl-2-oxazoline)-b-polydimethylsiloxane-b-poly(2-methyl-2-oxazoline). Molecular weights of the segments are poly(2-methyl-2-oxazoline): 1300, and PDMS segment: 4400. The copolymer is made as described in U.S. Pat. No. 5,807,944 to Hirt et al.
A total of 50 mg of polymer was dissolved in 250 μl of ethanol (99%). The ethanolic solution was slowly added to 5 ml of bi-distilled water containing 0.2 M carboxy-fluorescein. A minimum of 4 h of stirring was allowed. Subsequently, the vesicles were extruded through 0.45 μm and 0.22 μm filters (Millex Durapore-PVDF, Millipore) 6 times. This procedure ensures formation of unilamellar vesicles with diameters dictated by the pore size of the extrusion filters and with a more monodisperse size distribution. Chromatographic separation was achieved on a Sepharose 4B column (1×30 cm) eluted with bi-distilled water. The slightly hazy fraction contains the vesicles.
The hydrogel matrix is based on a PVA-acrylamide macromer and a UV-initiator as taught by U.S. Pat. No. 7,070,809 to Goupil et al., Example 5a. […]
3 g of the vehicle are immersed in 5 ml of water. The water is exchanged every hour for the first 8 hours and every 24 hours thereafter and the fluorescence of the supernatant is measured in order to calculate the amount of carboxy-fluorescein released from the vehicle.

Where a name gives a salt, the structure may show the parent alone.

Turning to `CCN(CC)CC(=O)Nc1c(C)cccc1C` [lidocaine HCl], the “lidocaine HCl release out of the vesicles in response to a change in pH” value in data set [1] is recorded as “released slowly with increasing pH, with an increased rate after pH 5”. In data set [2], the “lidocaine release after shape change of the hydrogel” value is “ruptured the vesicles and their content is released”. In data set [3], the “free lidocaine released from the hydrogel” value is “About 80%”. Also, in data set [4], the “release of vesicle content at room temperature” value was “release their content slowly”.
Turning to Carboxy-fluorescein, the “passive release of active agent out of the vesicles and hydrogel matrix” value in data set [5] was “slowly diffuse out of the vesicles and then be released from the hydrogel”.
